Experimental findings from paper PMC10671849, “Synthesis and Evaluation of Marine-Inspired Compounds Result in Hybrids with Antitrypanosomal and Antileishmanial Activities” (Marine Drugs, 2023) are described below.

Series [1] concerns L. infantum promastigotes. Description: Anti-Leishmania activity, resazurin-based assay. Type of series: cell-based. As to conditions: 72 h incubation, resazurin, highest concentration tested 40 µM, 95% CI in parentheses, read-out: Anti-Parasitic Activity IC50 (µM) 95% CI, L. infantum Promastigotes. The procedure:
Promastigotes from the L. infantum strain (MHOM/MA/67/ITMAP-263) were grown in 5-mL T25 flasks in Schneider’s insect medium supplemented with 10% heat-inactivated fetal bovine serum (FBS), 200 U/mL penicillin/streptomycin, 6 µg/mL Phenol Red, and 5 mM HEPES. The cultures were maintained in an incubator at 27 °C and diluted to 2 × 10^5/mL every 5 days. For the assays, the parasites used were equivalent to late/log with 2 or 3 days of culture.
The compounds’ efficacy against L. infantum promastigotes was evaluated using a resazurin-based assay. Parasites were added to 100 µL of serial dilutions of compounds in supplemented complete medium at a cell density of 5 × 10^5/mL. As a quality control, a dose–response curve to the antileishmanial drug miltefosine was included in all the assays. The final volume of the assay was 200 µL/well. Each condition was carried out in duplicate. Following 72 h of incubation at the specific conditions for parasites, 20 µL of a 0.5 mM resazurin solution was added, and the plates were incubated for a further 4 h under the same conditions. Fluorescence was measured at 544 nm and 590 nm excitation and emission wavelengths, respectively, using a Synergy 2 Multi-Mode Reader (Biotek, Winooski, VT, USA). Results are shown as % of parasite growth inhibition compared to control (untreated parasites) and represent the average of at least three independent experiments. The effect was evaluated by the determination of the IC50 value (concentration required to inhibit growth in 50%) and was calculated by non-linear regression curves using GraphPad Prism software, version 8.1.1 for Windows (GraphPad Software, San Diego, CA, USA).
For orientation: Alamar Blue is a resazurin reagent that responds to reducing activity.

Series [2] can be described thus: Cytotoxicity MTT assay on PMA-differentiated THP-1 macrophages. Type of series: cell-based. As to conditions: human. The procedure: A human leukemia cell line, THP-1 (ATCC® TIB-202™), was cultured in RPMI-1640 medium supplemented with 10% heat-inactivated fetal bovine serum (FBS), 2 mM L-glutamine, 100 IU/mL penicillin/streptomycin, and 20 mM HEPES. The cell line was maintained in a humidified incubator at 37 °C and 5% CO2 by subculture every 3 days in 20 mL of media at a concentration of 2 × 10^5/mL in a T75 flask. All cell culture reagents were purchased from Lonza-Bioscience (Morrisville, NC, USA).
The cytotoxicity effect of compounds on THP-1-derived macrophages was assessed by colorimetric MTT assay (3-(4,5-dimethylthiazol-2-yl)-2,5-diphenyl tetrazolium bromide). Briefly, THP-1 cells were suspended in RPMI complete medium at a density of 1 × 10^6 cells/mL and 100 μL/well and were seeded in a 96-well plate and differentiated into macrophages by addition of 40 ng/mL of phorbol-myristate 13-acetate (PMA, Sigma, Saint Louis, MI, USA) for 24 h, followed by replacement with fresh medium for 24 more h. Subsequently, the cells were incubated with 100 μL of compounds ranging from 100 to 12.5 μM after dilution in the RPMI complete medium. Each condition was carried out in quadruplicate. After 72 h of incubation at 37 °C and 5% CO2, the medium was removed, and 200 μL of 0.5 mg/mL MTT solution diluted in RPMI was added. The plates were incubated for an additional 4 h. Then, 160 μL of media was removed, and the same volume of 2-propanol was added. Absorbance was read at 570 nm using a Synergy 2 Multi-Mode Reader (Biotek, Winooski, VT, USA). Cytotoxicity was evaluated by the determination of the CC50 value (drug concentration that reduced the percentage of viable cells by 50%) and calculated by non-linear regression analysis using GraphPad Prism software, version 8.1.1 for Windows (GraphPad Software, San Diego, CA, USA). The results represent the average of at least three independent experiments. For each compound, the selectivity index (SI) was calculated as the ratio between cytotoxicity in THP-1 (CC50, 72 h) and activity against parasites (IC50, 72 h).
(Tetrazolium assays rely on reduction of a dye to a coloured formazan, in cell work by metabolically active cells.)

The test system of series [3] is T. brucei Lister 427 bloodstream forms. Nature of the series: Anti-T. brucei activity, resazurin-based assay on bloodstream forms. Type of series: cell-based, Trypanosoma brucei. As to conditions: Trypanosoma brucei; bloodstream forms, 72 h incubation, resazurin; read-out: Anti-Parasitic Activity IC50 (µM) 95% CI, T. brucei. The procedure:
T. brucei Lister 427 bloodstream forms were grown in a humidified incubator at 37 °C and 5% CO2 in complete HMI-9 medium supplemented with 10% heat-inactivated fetal bovine serum (FBS) and 100 UI/mL penicillin/streptomycin. Parasite maintenance was performed in T25 ventilated flasks by subpassage at a concentration of 1 × 10^4/mL every 2 days in T25 ventilated flasks. Luciferase-expressing L. infantum (MHOM/MA/67/ITMAP-263) axenic amastigotes expressing episomal luciferase were maintained in MAA20 [31] at 37 °C in a 5% CO2 environment with subculture every 7 days at 1 × 10^6/mL in 5-mL T25 ventilated flasks.
The compounds’ efficacy against bloodstream-stage trypomastigotes was evaluated using a resazurin-based assay. Parasites were added to 100 µL of serial dilutions of compounds in supplemented complete medium at a cell density of 5 × 10^3/mL. As a quality control, a dose–response curve for the antitrypanosomal pentamidine was included in all the assays. The final volume of the assay was 200 µL/well. Each condition was carried out in duplicate. Following 72 h of incubation at the specific conditions for parasites, 20 […] of a 0.5 mM resazurin solution was added, and the plates were incubated for a further 4 h under the same conditions. Fluorescence was measured at 544 nm and 590 nm excitation and emission wavelength, respectively, using a Synergy 2 Multi-Mode Reader (Biotek, Winooski, VT, USA). The results are shown as % of parasite growth inhibition compared to control (untreated parasites) and represent the average of at least three independent experiments. The effect was evaluated by the determination of the IC50 value (concentration required to inhibit growth in 50%) and calculated by non-linear regression curves using GraphPad Prism software, version 8.1.1 for Windows (GraphPad Software, San Diego, CA, USA).

Read-outs that look alike come from different tables or passages of the source.

As usually defined, the IC50 is the point on the concentration scale where inhibition reaches its midpoint. What is called CC50 is the concentration at which the toxic effect on the cells reaches its halfway point. As to `CCCCCCCCCCCCCCCCOP(=O)([O-])OCC[N+](C)(C)C` [Miltefosine, miltefosine, reference compound], the IC50 in series [1] came to 11 µM. In series [2] (PMA-differentiated THP-1 macrophages, 72 h, MTT, 100 to 12.5 µM tested, read-out: Cytotoxicity CC50 (µM) 95% CI, THP-1), the CC50 at 72 h came to 29.4 µM.
Take `N=C(N)c1ccc(OCCCCCOc2ccc(C(=N)N)cc2)cc1` [Pentamidine, pentamidine, reference compound]: the IC50 in series [3] is 0.0056 µM. Further, the CC50 at 72 h in series [2] was found to be 37.7 µM.
